Assay results reported in PubChem BioAssay AID248 (DTP/NCI, 2004).
Values joined by “and” are separate entries in the source; they are usually repeats but may differ in a detail not shown here. Equal entries are not always repeated. Toxic doses and inconclusive results are not listed.

Test system: L1210 leukemia ip in BDF1 mice, survival T/C
Experiment: NCI In Vivo Anticancer Drug Screen. Data for tumor model L1210 Leukemia (intraperitoneal) in B6D2F1 (BDF1) mice
Conditions: higher = longer survival
Procedure, shortened: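 Ratio derived from survival: compound-dosed mice over vehicle-dosed mice, all bearing a transplantable tumor.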

Compound: NC(Cc1ccc(N(CCCl)CCCl)cc1)C(=O)O (centres undefined)
- T/C (endpoint: mean survival time, dose: 0.32 mg/kg/injection, schedule: Q01DX Z (ip), vehicle: carboxymethylcellulose (CMC)): 110 % of control
- T/C (endpoint: mean survival time, dose: 0.37 mg/kg/injection, schedule: Q01DX Z (im), vehicle: saline): 111 % of control
- T/C (endpoint: mean survival time, dose: 0.37 mg/kg/injection, schedule: Q01DX Z (ip), vehicle: saline): 111 % of control
- T/C (endpoint: mean survival time, dose: 0.37 mg/kg/injection, schedule: Q01DX Z (sc), vehicle: saline): 104 % of control
- T/C (endpoint: mean survival time, dose: 0.5 mg/kg/injection, schedule: Q01DX010 (ip), vehicle: alkali diluted with saline): 122 % of control and 123 % of control
- T/C (endpoint: mean survival time, dose: 0.51 mg/kg/injection, schedule: Q01DX Z (ip), vehicle: carboxymethylcellulose (CMC)): 119 % of control
- T/C (endpoint: mean survival time, dose: 0.64 mg/kg/injection, schedule: Q01DX Z (ip), vehicle: carboxymethylcellulose (CMC)): 122 % of control
- T/C (endpoint: mean survival time, dose: 0.75 mg/kg/injection, schedule: Q01DX Z (im), vehicle: saline): 122 % of control
- T/C (endpoint: mean survival time, dose: 0.75 mg/kg/injection, schedule: Q01DX Z (ip), vehicle: saline): 115 % of control
- T/C (endpoint: mean survival time, dose: 0.75 mg/kg/injection, schedule: Q01DX Z (sc), vehicle: saline): 113 % of control
- T/C (endpoint: mean survival time, dose: 1.0 mg/kg/injection, schedule: Q01DX010 (ip), vehicle: alkali diluted with saline): 123 % of control
- T/C (endpoint: mean survival time, dose: 1.0 mg/kg/injection, schedule: Q01DX Z (ip), vehicle: methylcellulose (MC)): 151 % of control
- T/C (endpoint: mean survival time, dose: 1.25 mg/kg/injection, schedule: Q01DX010 (ip), vehicle: saline): 118 % of control
- T/C (endpoint: mean survival time, dose: 1.28 mg/kg/injection, schedule: Q01DX Z (ip), vehicle: carboxymethylcellulose (CMC)): 151 % of control
- T/C (endpoint: mean survival time, dose: 1.5 mg/kg/injection, schedule: Q01DX Z (sc), vehicle: saline): 119 % of control
- T/C (endpoint: mean survival time, dose: 2.5 mg/kg/injection, schedule: Q01DX009 (ip), vehicle: saline): 123 % of control and 124 % of control
- T/C (endpoint: mean survival time, dose: 2.56 mg/kg/injection, schedule: Q01DX Z (ip), vehicle: carboxymethylcellulose (CMC)): 166 % of control
- T/C (endpoint: mean survival time, dose: 3.0 mg/kg/injection, schedule: Q01DX006 (iv), vehicle: saline): 119 % of control
- T/C (endpoint: mean survival time, dose: 3.0 mg/kg/injection, schedule: Q01DX Z (im), vehicle: saline): 166 % of control and 176 % of control
- T/C (endpoint: mean survival time, dose: 3.0 mg/kg/injection, schedule: Q01DX Z (ip), vehicle: saline): 150 % of control and 201 % of control
- T/C (endpoint: mean survival time, dose: 3.0 mg/kg/injection, schedule: Q01DX Z (sc), vehicle: saline): 161 % of control
- T/C (endpoint: mean survival time, dose: 3.2 mg/kg/injection, schedule: Q01DX Z (ip), vehicle: saline): 113 % of control
- T/C (endpoint: mean survival time, dose: 4.0 mg/kg/injection, schedule: Q01DX009 (ip), vehicle: saline): 187 % of control and 200 % of control
- T/C (endpoint: mean survival time, dose: 5.0 mg/kg/injection, schedule: Q01DX009 (ip), vehicle: saline): 167 % of control
- T/C (endpoint: mean survival time, dose: 5.0 mg/kg/injection, schedule: Q01DX010 (ip), vehicle: saline): 152 % of control
- T/C (endpoint: mean survival time, dose: 6.0 mg/kg/injection, schedule: Q01DX006 (iv), vehicle: saline): 114 % of control
- T/C (endpoint: mean survival time, dose: 6.0 mg/kg/injection, schedule: Q01DX Z (im), vehicle: saline): 154 % of control
- T/C (endpoint: mean survival time, dose: 6.0 mg/kg/injection, schedule: Q01DX Z (ip), vehicle: saline): 164 % of control
- T/C (endpoint: mean survival time, dose: 6.0 mg/kg/injection, schedule: Q01DX Z (sc), vehicle: saline): 185 % of control
- T/C (endpoint: mean survival time, dose: 6.3 mg/kg/injection, schedule: Q01DX Z (ip), vehicle: saline): 86 % of control
- T/C (endpoint: mean survival time, dose: 8.0 mg/kg/injection, schedule: Q01DX001 (ip), vehicle: carboxymethylcellulose (CMC)): 181 % of control
- T/C (endpoint: mean survival time, dose: 8.0 mg/kg/injection, schedule: Q01DX009 (ip), vehicle: saline): 111 % of control and 122 % of control
- T/C (endpoint: mean survival time, dose: 10.0 mg/kg/injection, schedule: Q01DX009 (ip), vehicle: saline): 167 % of control and 193 % of control
- T/C (endpoint: mean survival time, dose: 10.0 mg/kg/injection, schedule: Q01DX010 (ip), vehicle: saline): 177 % of control
- T/C (endpoint: mean survival time, dose: 12.0 mg/kg/injection, schedule: Q01DX001 (ip), vehicle: carboxymethylcellulose (CMC)): 253 % of control
- T/C (endpoint: mean survival time, dose: 12.0 mg/kg/injection, schedule: Q01DX006 (iv), vehicle: saline): 123 % of control
- T/C (endpoint: mean survival time, dose: 12.0 mg/kg/injection, schedule: Q01DX Z (oral), vehicle: saline): 90 % of control
- T/C (endpoint: mean survival time, dose: 12.0 mg/kg/injection, schedule: Q01DX Z (sc), vehicle: saline): 111 % of control
- T/C (endpoint: mean survival time, dose: 15.0 mg/kg/injection, schedule: Q01DX Z (ip), vehicle: carboxymethylcellulose (CMC)): 172 % of control
- T/C (endpoint: mean survival time, dose: 16.0 mg/kg/injection, schedule: Q01DX009 (ip), vehicle: saline): 93 % of control
- T/C (endpoint: mean survival time, dose: 16.0 mg/kg/injection, schedule: Q01DX Z (ip), vehicle: methylcellulose (MC)): 90 % of control
- T/C (endpoint: mean survival time, dose: 18.0 mg/kg/injection, schedule: Q01DX001 (ip), vehicle: carboxymethylcellulose (CMC)): 341 % of control
- T/C (endpoint: mean survival time, dose: 18.0 mg/kg/injection, schedule: Q01DX001 (ip), vehicle: saline): 202 % of control and 233 % of control
- T/C (endpoint: mean survival time, dose: 20.0 mg/kg/injection, schedule: Q01DX009 (ip), vehicle: saline): 94 % of control
- T/C (endpoint: mean survival time, dose: 20.0 mg/kg/injection, schedule: Q01DX010 (ip), vehicle: saline): 117 % of control
- T/C (endpoint: mean survival time, dose: 22.0 mg/kg/injection, schedule: Q01DX Z (ip), vehicle: carboxymethylcellulose (CMC)): 87 % of control
- T/C (endpoint: mean survival time, dose: 24.0 mg/kg/injection, schedule: Q01DX006 (iv), vehicle: saline): 123 % of control
- T/C (endpoint: mean survival time, dose: 25.0 mg/kg/injection, schedule: Q01DX001 (ip), vehicle: saline): 118 % of control and 229 % of control and 230 % of control
- T/C (endpoint: mean survival time, dose: 35.0 mg/kg/injection, schedule: Q01DX001 (ip), vehicle: saline): 161 % of control and 240 % of control
- T/C (endpoint: mean survival time, dose: 50.0 mg/kg/injection, schedule: Q01DX001 (ip), vehicle: saline): 87 % of control
- T/C (endpoint: median survival time, dose: 10.0 mg/kg/injection, schedule: Q01DX009 (ip), vehicle: saline): 155 % of control and 156 % of control
- T/C (endpoint: median survival time, dose: 20.0 mg/kg/injection, schedule: Q01DX009 (ip), vehicle: saline): 112 % of control

Compound: CCCN(CCC)CC(C)(C)CO
- T/C (endpoint: mean survival time, dose: 50.0 mg/kg/injection, schedule: Q01DX009 (ip), vehicle: saline with Tween-80): 96 % of control
- T/C (endpoint: mean survival time, dose: 100.0 mg/kg/injection, schedule: Q01DX009 (ip), vehicle: saline with Tween-80): 101 % of control

Compound: O=C(O)c1cc(N2CCCC2)ccn1
- T/C (endpoint: mean survival time, dose: 100.0 mg/kg/injection, schedule: Q01DX001 (ip), vehicle: saline): 96 % of control
- T/C (endpoint: mean survival time, dose: 200.0 mg/kg/injection, schedule: Q01DX001 (ip), vehicle: saline): 101 % of control

Compound: Brc1cc(Cc2c(Br)csc2Br)c(Br)s1
- T/C (endpoint: mean survival time, dose: 100.0 mg/kg/injection, schedule: Q04DX002 (ip), vehicle: saline with Tween-80): 101 % of control
- T/C (endpoint: mean survival time, dose: 200.0 mg/kg/injection, schedule: Q04DX002 (ip), vehicle: saline with Tween-80): 101 % of control
- T/C (endpoint: mean survival time, dose: 400.0 mg/kg/injection, schedule: Q04DX002 (ip), vehicle: saline with Tween-80): 101 % of control

Compound: N#CC1CC2c3ccccc3C1([N+](=O)[O-])c1ccccc12 (centres undefined)
- T/C (endpoint: mean survival time, dose: 100.0 mg/kg/injection, schedule: Q01DX001 (ip), vehicle: Klucel (hydroxypropylcellulose) (HPC)): 90 % of control
- T/C (endpoint: mean survival time, dose: 100.0 mg/kg/injection, schedule: Q01DX009 (ip), vehicle: Klucel (hydroxypropylcellulose) (HPC)): 98 % of control
- T/C (endpoint: mean survival time, dose: 200.0 mg/kg/injection, schedule: Q01DX001 (ip), vehicle: Klucel (hydroxypropylcellulose) (HPC)): 104 % of control
- T/C (endpoint: mean survival time, dose: 200.0 mg/kg/injection, schedule: Q01DX009 (ip), vehicle: Klucel (hydroxypropylcellulose) (HPC)): 98 % of control
- T/C (endpoint: mean survival time, dose: 400.0 mg/kg/injection, schedule: Q01DX001 (ip), vehicle: Klucel (hydroxypropylcellulose) (HPC)): 96 % of control
- T/C (endpoint: mean survival time, dose: 400.0 mg/kg/injection, schedule: Q01DX009 (ip), vehicle: Klucel (hydroxypropylcellulose) (HPC)): 103 % of control

Compound: O=C1NC(=O)C2(N1)C1CC3CC(C1)CC2C3 (centres undefined)
- T/C (endpoint: mean survival time, dose: 100.0 mg/kg/injection, schedule: Q01DX009 (ip), vehicle: alcohol): 94 % of control
- T/C (endpoint: mean survival time, dose: 100.0 mg/kg/injection, schedule: Q04DX003 (ip), vehicle: alcohol): 96 % of control
- T/C (endpoint: mean survival time, dose: 200.0 mg/kg/injection, schedule: Q01DX009 (ip), vehicle: alcohol): 98 % of control
- T/C (endpoint: mean survival time, dose: 200.0 mg/kg/injection, schedule: Q04DX003 (ip), vehicle: alcohol): 102 % of control
- T/C (endpoint: mean survival time, dose: 400.0 mg/kg/injection, schedule: Q01DX009 (ip), vehicle: alcohol): 87 % of control
- T/C (endpoint: mean survival time, dose: 400.0 mg/kg/injection, schedule: Q04DX003 (ip), vehicle: alcohol): 96 % of control

Compound: CC(Cc1ccc2c(c1)OCO2)C(C)Cc1ccc2c(c1)OCO2 (centres undefined)
- T/C (endpoint: mean survival time, dose: 100.0 mg/kg/injection, schedule: Q01DX009 (ip), vehicle: other): 102 % of control
- T/C (endpoint: mean survival time, dose: 100.0 mg/kg/injection, schedule: Q04DX003 (ip), vehicle: other): 90 % of control
- T/C (endpoint: mean survival time, dose: 200.0 mg/kg/injection, schedule: Q01DX009 (ip), vehicle: other): 109 % of control
- T/C (endpoint: mean survival time, dose: 200.0 mg/kg/injection, schedule: Q04DX003 (ip), vehicle: other): 102 % of control
- T/C (endpoint: mean survival time, dose: 400.0 mg/kg/injection, schedule: Q01DX009 (ip), vehicle: other): 91 % of control
- T/C (endpoint: mean survival time, dose: 400.0 mg/kg/injection, schedule: Q04DX003 (ip), vehicle: other): 90 % of control

Compound: CN(C)c1ccc(N=Nc2nccs2)cc1
- T/C (endpoint: mean survival time, dose: 100.0 mg/kg/injection, schedule: Q04DX003 (ip), vehicle: saline with Tween-80): 91 % of control
- T/C (endpoint: mean survival time, dose: 400.0 mg/kg/injection, schedule: Q04DX003 (ip), vehicle: saline with Tween-80): 88 % of control
